Laboratory results reported in publication PMC5078040 (Oncotarget, 2016).

Key:
[1] = target: T1, AMPK-alpha2 (Homo sapiens, UniProt P54646); assay: KinomeScan; type: binding; conditions: 1uM
T1 construct: purchased DiscoveRx KINOMEscan

[2] = target: T2, ASK1 (Homo sapiens, UniProt Q99683); assay: KinomeScan; type: binding; conditions: 1uM
T2 construct: purchased DiscoveRx KINOMEscan

[3] = target: T3, AURKC (Homo sapiens, UniProt Q9UQB9); assay: KinomeScan; type: binding; conditions: 1uM
T3 construct: purchased DiscoveRx KINOMEscan

[4] = target: T4, BMX (Homo sapiens, UniProt P51813); assay: KinomeScan; type: binding; conditions: 1uM
T4 construct: purchased DiscoveRx KINOMEscan

[5] = target: T5, CAMK2A (Homo sapiens, UniProt Q9UQM7); assay: KinomeScan; type: binding; conditions: 1uM
T5 construct: purchased DiscoveRx KINOMEscan

[6] = target: T6, CAMK2D (Homo sapiens, UniProt Q13557); assay: KinomeScan; type: binding; conditions: 1uM
T6 construct: purchased DiscoveRx KINOMEscan

[7] = target: T7, CSK (Homo sapiens, UniProt P41240); assay: KinomeScan; type: binding; conditions: 1uM
T7 construct: purchased DiscoveRx KINOMEscan

[8] = target: T8, CSNK1A1 (Homo sapiens, UniProt P48729); assay: KinomeScan; type: binding; conditions: 1uM
T8 construct: purchased DiscoveRx KINOMEscan

[9] = target: T9, CSNK2A1 (Homo sapiens, UniProt P68400); assay: KinomeScan; type: binding; conditions: 1uM
T9 construct: purchased DiscoveRx KINOMEscan

[10] = target: T10, EPHA6 (Homo sapiens, UniProt Q9UF33); assay: KinomeScan; type: binding; conditions: 1uM
T10 construct: purchased DiscoveRx KINOMEscan

[11] = target: T11, EPHB2 (Homo sapiens, UniProt P29323); assay: KinomeScan; type: binding; conditions: 1uM
T11 construct: purchased DiscoveRx KINOMEscan

[12] = target: T12, GRK7 (Homo sapiens, UniProt Q8WTQ7); assay: KinomeScan; type: binding; conditions: 1uM
T12 construct: purchased DiscoveRx KINOMEscan

[13] = target: T13, IRAK3 (Homo sapiens, UniProt Q9Y616); assay: KinomeScan; type: binding; conditions: 1uM
T13 construct: purchased DiscoveRx KINOMEscan

[14] = target: T14, IRAK4 (Homo sapiens, UniProt Q9NWZ3); assay: KinomeScan; type: binding; conditions: 1uM
T14 construct: purchased DiscoveRx KINOMEscan

[15] = target: T15, JAK1(JH1domain-catalytic) (Homo sapiens, UniProt P23458); assay: KinomeScan; type: binding; conditions: 1uM
T15 construct: JAK1(JH1domain-catalytic); purchased DiscoveRx KINOMEscan

[16] = target: T16, JAK1(JH2domain-pseudokinase) (Homo sapiens, UniProt P23458); assay: KinomeScan; type: binding; conditions: 1uM
T16 construct: JAK1(JH2domain-pseudokinase); purchased DiscoveRx KINOMEscan

[17] = target: T17, MST3 (Homo sapiens, UniProt Q9Y6E0); assay: KinomeScan; type: binding; conditions: 1uM
T17 construct: purchased DiscoveRx KINOMEscan

[18] = target: T18, p38-beta (Homo sapiens, UniProt Q15759); assay: KinomeScan; type: binding; conditions: 1uM
T18 construct: purchased DiscoveRx KINOMEscan

[19] = target: T19, PAK4 (Homo sapiens, UniProt O96013); assay: KinomeScan; type: binding; conditions: 1uM
T19 construct: purchased DiscoveRx KINOMEscan

[20] = target: T20, PCTK3 (Homo sapiens, UniProt Q07002); assay: KinomeScan; type: binding; conditions: 1uM
T20 construct: purchased DiscoveRx KINOMEscan

[21] = target: T21, RSK3(Kin.Dom.2-C-terminal) (Homo sapiens, UniProt Q15349); assay: KinomeScan; type: binding; conditions: 1uM
T21 construct: RSK3(Kin.Dom.2-C-terminal); purchased DiscoveRx KINOMEscan

[22] = target: T22, S6K1 (Homo sapiens, UniProt P23443); assay: KinomeScan; type: binding; conditions: 1uM
T22 construct: purchased DiscoveRx KINOMEscan

[23] = target: T23, SBK1 (Homo sapiens, UniProt Q52WX2); assay: KinomeScan; type: binding; conditions: 1uM
T23 construct: purchased DiscoveRx KINOMEscan

[24] = target: T24, SNRK (Homo sapiens, UniProt Q9NRH2); assay: KinomeScan; type: binding; conditions: 1uM
T24 construct: purchased DiscoveRx KINOMEscan

[25] = target: T25, TAK1 (Homo sapiens, UniProt O43318); assay: KinomeScan; type: binding; conditions: 1uM
T25 construct: purchased DiscoveRx KINOMEscan

[26] = target: T26, ZAP70 (Homo sapiens, UniProt P43403); assay: KinomeScan; type: binding; conditions: 1uM
T26 construct: purchased DiscoveRx KINOMEscan

[27] = target: T27, PI3Kβ (Mus musculus, UniProt Q8BTI9); assay: PI3Ks isoform in cell EC50 assay (AKT phosphorylation, Western Blotting); type: cell-based; conditions: NIH-3T3, 5μM LPA, read-out: cellular EC50 PI3K Beta
T27 construct: endogenous in cells; host or cells: NIH-3T3

[28] = test system: S6K phosphorylation; assay: Signaling pathway effect examination (western blotting); type: cell-based, human; parameters: dose or concentration left out as unconfirmed; conditions: MOLM13, HT, Namalwa, MEC-1, MEC-2 cells
Description: The cells were collected and lysed, and cell lysates were analyzed by western blotting.

[29] = test system: panel of cancer cell lines derived from B-cell malignancies; assay: Anti-proliferative assay (panel summary); type: cell-based; conditions: Homo sapiens; most of the cell lines including AML, B-cell lymphoma and multiple myeloma cell lines
Description: (§1) Cells were grown in 96-well culture plates (3000-4000/well). […] Cell proliferation was determined after treatment with compounds for 72 hours. Cell viability was measured using the CellTiter–Glo Assay Kit (Promega, USA), according to the manufacturer's instructions, and luminescence was measured in a multi-label reader (Envision, PerkinElmer, USA). Data were normalized to control groups (DMSO) and represented by the mean of three independent measurements with standard error <20%. GI50 values were calculated using Prism 5.0 (GraphPad Software, San Diego, CA).

[30] = test system: CLL patient primary cell; assay: Anti-proliferative efficacy against patient primary cells; type: cell-based; conditions: Homo sapiens
Description: Peripheral blood mononuclear cells (PBMCs) from individuals with CLL were isolated by density centrifugation through Ficoll and frozen for each subject. Those subjects with low white counts whose CLL cell purity was expected to be < 85% underwent B cell isolation using RosetteSep. The protocol was approved by the Dana-Farber Harvard Cancer Center Institutional Review Board and all subjects signed written informed consent prior to participation.
as §1

[31] = test system: AML patient primary cell; assay: as above; type: cell-based; conditions: Homo sapiens
Description: Mononuclear cells were isolated from AML patients. Mononuclear cells were isolated by density gradient centrifugation through Ficoll-Plaque Plus (Amersham Pharmacia Biotech AB, Uppsala, Sweden) at 2000 rpm for 30 minutes, followed by two washes in 1X PBS. Freeze-thawed cells were then cultured in liquid culture (DMEM, supplemented with 20% FBS). All blood and bone marrow samples from AML patients were obtained through written consent under approval of the Dana Farber Cancer Institute Institutional Review Board. The ethics committees approved the consent procedure.
as §1

T20 sequence (Q07002 whole entry): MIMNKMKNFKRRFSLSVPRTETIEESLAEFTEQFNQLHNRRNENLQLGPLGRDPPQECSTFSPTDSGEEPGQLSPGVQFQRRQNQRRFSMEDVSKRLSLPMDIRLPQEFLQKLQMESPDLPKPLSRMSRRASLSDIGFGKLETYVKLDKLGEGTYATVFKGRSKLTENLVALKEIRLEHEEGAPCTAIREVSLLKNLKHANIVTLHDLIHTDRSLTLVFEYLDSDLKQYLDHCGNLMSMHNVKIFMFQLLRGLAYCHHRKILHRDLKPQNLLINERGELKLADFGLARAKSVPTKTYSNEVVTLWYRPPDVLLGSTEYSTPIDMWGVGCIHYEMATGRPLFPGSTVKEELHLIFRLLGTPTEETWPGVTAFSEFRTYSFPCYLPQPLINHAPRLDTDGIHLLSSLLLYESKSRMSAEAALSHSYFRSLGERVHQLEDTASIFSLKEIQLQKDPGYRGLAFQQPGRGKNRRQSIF
T15 sequence (P23458 854-1154 limits assumed): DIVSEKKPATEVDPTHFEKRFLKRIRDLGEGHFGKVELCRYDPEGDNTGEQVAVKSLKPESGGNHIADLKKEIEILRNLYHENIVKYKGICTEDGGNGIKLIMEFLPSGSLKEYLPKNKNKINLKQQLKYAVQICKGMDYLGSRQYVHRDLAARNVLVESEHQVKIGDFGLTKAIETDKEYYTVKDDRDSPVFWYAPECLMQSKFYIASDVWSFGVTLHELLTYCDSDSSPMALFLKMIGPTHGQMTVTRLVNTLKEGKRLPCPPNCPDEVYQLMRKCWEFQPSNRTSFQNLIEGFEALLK
T6 sequence (Q13557 whole entry): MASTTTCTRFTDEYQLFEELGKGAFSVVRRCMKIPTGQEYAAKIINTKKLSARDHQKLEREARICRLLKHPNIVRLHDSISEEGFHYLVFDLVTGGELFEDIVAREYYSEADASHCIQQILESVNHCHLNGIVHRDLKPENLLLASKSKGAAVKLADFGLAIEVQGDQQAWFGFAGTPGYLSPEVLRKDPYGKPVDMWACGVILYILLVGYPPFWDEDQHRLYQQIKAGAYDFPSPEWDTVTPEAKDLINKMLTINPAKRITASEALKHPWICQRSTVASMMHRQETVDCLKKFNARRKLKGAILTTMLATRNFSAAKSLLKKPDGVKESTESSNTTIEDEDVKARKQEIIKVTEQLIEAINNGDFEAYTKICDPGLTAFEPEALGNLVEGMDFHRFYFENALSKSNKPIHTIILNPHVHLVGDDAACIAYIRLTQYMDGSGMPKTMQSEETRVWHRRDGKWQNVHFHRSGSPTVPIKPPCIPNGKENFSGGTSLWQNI
T26 sequence (P43403 whole entry): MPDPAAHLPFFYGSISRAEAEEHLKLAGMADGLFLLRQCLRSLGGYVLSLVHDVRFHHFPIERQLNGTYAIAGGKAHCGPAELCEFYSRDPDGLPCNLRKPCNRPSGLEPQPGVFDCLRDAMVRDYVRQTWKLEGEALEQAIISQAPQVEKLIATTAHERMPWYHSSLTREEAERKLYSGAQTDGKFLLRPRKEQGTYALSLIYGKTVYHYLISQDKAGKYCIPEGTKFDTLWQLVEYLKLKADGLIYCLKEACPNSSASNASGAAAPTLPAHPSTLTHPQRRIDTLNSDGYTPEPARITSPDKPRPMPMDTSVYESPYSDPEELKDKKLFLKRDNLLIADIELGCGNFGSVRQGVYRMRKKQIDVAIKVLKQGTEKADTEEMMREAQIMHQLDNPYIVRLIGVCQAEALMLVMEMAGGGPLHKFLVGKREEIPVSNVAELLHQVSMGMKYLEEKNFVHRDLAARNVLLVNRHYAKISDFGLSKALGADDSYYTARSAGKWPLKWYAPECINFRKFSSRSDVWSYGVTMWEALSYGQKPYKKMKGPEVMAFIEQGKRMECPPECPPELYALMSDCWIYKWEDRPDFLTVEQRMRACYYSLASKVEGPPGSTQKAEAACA
T13 sequence (Q9Y616 whole entry): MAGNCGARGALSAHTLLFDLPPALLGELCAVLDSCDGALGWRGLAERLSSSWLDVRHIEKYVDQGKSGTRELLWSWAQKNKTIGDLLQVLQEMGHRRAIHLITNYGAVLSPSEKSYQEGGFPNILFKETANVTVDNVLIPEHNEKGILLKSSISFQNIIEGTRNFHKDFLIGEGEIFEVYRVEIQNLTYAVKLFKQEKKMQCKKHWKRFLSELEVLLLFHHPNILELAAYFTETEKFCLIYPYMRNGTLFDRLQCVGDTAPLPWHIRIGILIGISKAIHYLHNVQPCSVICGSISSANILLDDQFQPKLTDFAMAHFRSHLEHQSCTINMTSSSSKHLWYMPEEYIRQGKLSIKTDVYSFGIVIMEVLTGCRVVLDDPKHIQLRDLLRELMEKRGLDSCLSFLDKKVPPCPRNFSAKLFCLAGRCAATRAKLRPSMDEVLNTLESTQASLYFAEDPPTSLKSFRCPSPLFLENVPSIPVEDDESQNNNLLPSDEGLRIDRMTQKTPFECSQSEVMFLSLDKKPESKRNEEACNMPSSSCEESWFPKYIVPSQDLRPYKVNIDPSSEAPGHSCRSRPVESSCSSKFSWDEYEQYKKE
T24 sequence (Q9NRH2 whole entry): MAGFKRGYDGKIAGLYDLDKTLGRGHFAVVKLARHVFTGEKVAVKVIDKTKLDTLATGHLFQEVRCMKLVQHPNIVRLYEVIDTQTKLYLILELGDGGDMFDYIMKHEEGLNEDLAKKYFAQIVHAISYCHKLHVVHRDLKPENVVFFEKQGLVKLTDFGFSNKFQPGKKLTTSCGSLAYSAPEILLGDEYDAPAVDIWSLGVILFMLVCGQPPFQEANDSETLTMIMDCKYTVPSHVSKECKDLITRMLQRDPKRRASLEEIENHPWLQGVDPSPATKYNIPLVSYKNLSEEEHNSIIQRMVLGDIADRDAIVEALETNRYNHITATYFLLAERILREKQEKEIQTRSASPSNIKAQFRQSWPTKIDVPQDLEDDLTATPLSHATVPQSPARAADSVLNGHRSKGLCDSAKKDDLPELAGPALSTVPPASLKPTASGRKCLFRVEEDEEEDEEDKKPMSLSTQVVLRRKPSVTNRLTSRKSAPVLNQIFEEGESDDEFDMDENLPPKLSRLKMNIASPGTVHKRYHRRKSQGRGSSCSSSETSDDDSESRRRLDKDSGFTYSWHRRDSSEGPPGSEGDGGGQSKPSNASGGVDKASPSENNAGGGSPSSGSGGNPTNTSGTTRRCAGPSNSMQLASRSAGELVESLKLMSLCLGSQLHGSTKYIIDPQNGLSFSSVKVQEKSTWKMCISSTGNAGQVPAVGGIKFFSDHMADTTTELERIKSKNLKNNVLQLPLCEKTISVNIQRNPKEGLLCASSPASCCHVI
T22 sequence (P23443 whole entry): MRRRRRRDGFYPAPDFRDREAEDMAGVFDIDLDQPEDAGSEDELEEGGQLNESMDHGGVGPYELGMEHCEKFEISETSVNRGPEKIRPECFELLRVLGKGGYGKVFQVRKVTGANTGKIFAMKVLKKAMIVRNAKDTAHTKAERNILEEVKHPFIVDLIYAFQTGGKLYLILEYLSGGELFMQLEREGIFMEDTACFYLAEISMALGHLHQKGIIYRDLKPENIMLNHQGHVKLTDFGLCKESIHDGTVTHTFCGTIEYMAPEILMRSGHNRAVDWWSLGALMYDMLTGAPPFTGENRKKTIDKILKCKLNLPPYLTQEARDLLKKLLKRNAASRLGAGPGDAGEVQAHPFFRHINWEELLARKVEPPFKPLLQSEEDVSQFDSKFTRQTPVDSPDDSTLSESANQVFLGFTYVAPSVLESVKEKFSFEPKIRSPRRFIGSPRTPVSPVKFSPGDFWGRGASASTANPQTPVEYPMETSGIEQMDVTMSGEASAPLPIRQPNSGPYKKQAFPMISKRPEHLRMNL
T8 sequence (P48729 whole entry): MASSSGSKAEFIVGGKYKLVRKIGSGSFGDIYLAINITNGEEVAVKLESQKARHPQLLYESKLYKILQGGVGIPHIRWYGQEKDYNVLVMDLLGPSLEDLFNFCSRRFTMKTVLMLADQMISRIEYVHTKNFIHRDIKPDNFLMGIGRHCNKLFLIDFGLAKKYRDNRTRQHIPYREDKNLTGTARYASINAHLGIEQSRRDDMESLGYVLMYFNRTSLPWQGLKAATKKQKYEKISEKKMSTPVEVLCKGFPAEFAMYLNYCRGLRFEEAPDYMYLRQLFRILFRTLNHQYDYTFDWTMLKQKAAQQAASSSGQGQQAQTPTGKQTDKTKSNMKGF
T19 sequence (O96013 whole entry): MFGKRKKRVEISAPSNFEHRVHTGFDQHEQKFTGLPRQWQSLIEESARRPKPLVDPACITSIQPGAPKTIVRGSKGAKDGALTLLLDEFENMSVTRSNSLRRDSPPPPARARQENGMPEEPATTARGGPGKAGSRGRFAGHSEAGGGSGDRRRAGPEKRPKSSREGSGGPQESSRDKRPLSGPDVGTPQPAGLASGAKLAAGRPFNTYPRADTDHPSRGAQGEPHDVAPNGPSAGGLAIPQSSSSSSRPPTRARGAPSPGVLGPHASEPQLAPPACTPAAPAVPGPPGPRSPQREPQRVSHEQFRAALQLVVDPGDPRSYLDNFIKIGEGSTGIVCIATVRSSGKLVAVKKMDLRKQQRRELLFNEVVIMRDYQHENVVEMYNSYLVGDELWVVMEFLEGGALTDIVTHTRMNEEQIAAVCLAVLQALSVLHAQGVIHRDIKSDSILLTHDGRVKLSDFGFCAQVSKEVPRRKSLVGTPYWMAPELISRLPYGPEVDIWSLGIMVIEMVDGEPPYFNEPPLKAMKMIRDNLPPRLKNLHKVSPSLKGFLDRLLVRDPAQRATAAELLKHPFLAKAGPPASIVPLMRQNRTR
T16 sequence (P23458 583-855 limits assumed): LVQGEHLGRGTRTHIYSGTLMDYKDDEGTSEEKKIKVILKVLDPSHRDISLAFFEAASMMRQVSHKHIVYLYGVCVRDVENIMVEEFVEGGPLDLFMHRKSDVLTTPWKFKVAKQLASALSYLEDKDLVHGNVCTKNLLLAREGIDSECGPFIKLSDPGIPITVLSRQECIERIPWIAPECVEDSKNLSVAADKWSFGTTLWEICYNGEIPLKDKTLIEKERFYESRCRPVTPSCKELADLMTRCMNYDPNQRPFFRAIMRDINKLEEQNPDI

## Cc1nc(NC(=O)[C@@H](N)C(C)C)sc1-c1cnc(Cl)c(NS(=O)(=O)c2ccccc2)c1 [PI3KD-IN-015]
[1]
  KinomeScan AMPK-alpha2: 100
[2]
  KinomeScan ASK1: 88
[3]
  KinomeScan AURKC: 77
[4]
  KinomeScan BMX: 100
[5]
  KinomeScan CAMK2A: 94
[6]
  KinomeScan CAMK2D: 95
[7]
  KinomeScan CSK: 90
[8]
  KinomeScan CSNK1A1: 100
[9]
  KinomeScan CSNK2A1: 100
[10]
  KinomeScan EPHA6: 100
[11]
  KinomeScan EPHB2: 100
[12]
  KinomeScan GRK7: 97
[13]
  KinomeScan IRAK3: 100
[14]
  KinomeScan IRAK4: 67
[15]
  KinomeScan JAK1(JH1domain-catalytic): 92
[16]
  KinomeScan JAK1(JH2domain-pseudokinase): 100
[17]
  KinomeScan MST3: 96
[18]
  KinomeScan p38-beta: 86
[19]
  KinomeScan PAK4: 100
[20]
  KinomeScan PCTK3: 100
[21]
  KinomeScan RSK3(Kin.Dom.2-C-terminal): 99
[22]
  KinomeScan S6K1: 100
[23]
  KinomeScan SBK1: 66
[24]
  KinomeScan SNRK: 100
[25]
  KinomeScan TAK1: 100
[26]
  KinomeScan ZAP70: 96
[27]
  EC50: > 3 µM
[28]
  S6K phosphorylation: significantly decreased
[29]
  GI50: 1 to 10 µM
[30]; patient primary cell CLL16
  GI50: 7.8 µM
[30]; patient primary cell CLL18
  GI50: > 10 µM
[30]; patient primary cell CLL19
  GI50: 1.5 µM
[31]; AML1, patient primary cell AML1
  GI50: 1.83 µM
[31]; AML3, patient primary cell AML3
  GI50: 9.2 µM
[31]; most of AML patient cells
  GI50: < 10 µM
[31]; patient primary cell AML2
  GI50: 0.85 µM
[31]; patient primary cell AML4
  GI50: 2.8 µM
[31]; patient primary cell AML5
  GI50: 6.3 µM
[31]; patient primary cell AML6
  GI50: > 10 µM
